Data reported in US11572399B2, “Long-acting GIP peptide analogues” (University of Copenhagen, priority 2017, dated 2023).
Where two headings read alike, the source gives them in different places. Peptide text beside a SMILES is read from it. * marks the point of attachment. C16 diacid = O=C(O)CCCCCCCCCCCCCCC(=O)*

Assays:
human GIP receptor [1] = molecular target: T1, human GIP receptor (Homo sapiens, UniProt P48546); test: cAMP accumulation assay, antagonism of a GIP-mediated cAMP response (50-80% of max); type: cell-based; details: for Fold change of IC50 versus GIP(5-30)NH2: fold change of IC50 from GIP(5-30)NH2; for IC50: transiently transfected COS-7 cells
T1 construct: host or cells: COS-7, transient transfection (calcium phosphate), cDNA in pCMV-Script
T1 sequence (P48546 22-466): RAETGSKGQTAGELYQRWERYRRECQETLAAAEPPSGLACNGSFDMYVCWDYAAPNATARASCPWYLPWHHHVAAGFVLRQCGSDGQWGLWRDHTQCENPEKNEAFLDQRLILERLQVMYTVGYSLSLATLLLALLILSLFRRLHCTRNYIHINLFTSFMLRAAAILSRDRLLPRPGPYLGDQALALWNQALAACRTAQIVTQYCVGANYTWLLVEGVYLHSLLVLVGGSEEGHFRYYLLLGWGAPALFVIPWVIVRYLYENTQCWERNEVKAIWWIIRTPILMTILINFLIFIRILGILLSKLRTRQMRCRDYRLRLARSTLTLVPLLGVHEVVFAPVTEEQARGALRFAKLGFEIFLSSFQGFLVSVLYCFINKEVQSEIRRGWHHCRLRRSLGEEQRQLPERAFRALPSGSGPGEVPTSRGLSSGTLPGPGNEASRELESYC
Experimental: The day after, the cells were washed twice with Hepes buffered saline (HBS) buffer and incubated with HBS and 1 mM 3-isobutyl-1-methylxanthine (IBMX) for 30 min at 37° C. […] The HitHunter™ cAMP XS assay (DiscoveRx) was carried out according to the manufacturer's instructions.

human GIP receptor [2] = molecular target: T1, human GIP receptor; test: 125I-human GIP competition binding assay, in the presence and absence of 2% HSA; details: for Fold change HSA (2%)/Casein (0.1%): IC50 (plus HSA)/IC50 (minus HSA); for Binding (+/−HSA) Fold: fold change +HSA/−HSA;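 on all read-outs here: nonspecific binding taken as radioligand bound to untransfected cells, IC50 obtained from nonlinear regression fits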
Experimental: Transient transfection of the COS-7 cells for cAMP accumulation and competition binding was performed using the calcium phosphate precipitation method with the addition of chloroquine^46-47.
Transient transfected COS-7 cells expressing the human GIP receptor were seeded in clear 96-well plates the day after transfection using a number of cells/well that obtained 5-10% specific binding of the added radioactive ligand. The following day, cells were assayed by competition binding for 3 h at 4° C. using 15-40 pM 125 I-human GIP as well as increasing concentrations unlabeled ligand in 50 mM Hepes buffer (pH 7.2) in the presence and absence of 2% HSA. After incubation, the cells were washed twice in ice-cold binding buffer (+/−2% HSA) and lysed using 200 mM NaOH with 1% SDS for 30 min. Nonspecific binding was determined as the binding of radioactive ligand to untransfected cells.
IC50, EC50, and Ki values were determined by nonlinear regression. […] Ki values were based on the formula for one class of binding sites in homologous competition binding studies and the Cheng Prussoffs formula, respectively (DeBlasi et al., 1989). To determine the HSA binding potential, the fold change in affinity (as determined by IC50) was calculated as IC50 (plus HSA)/IC50 (minus HSA).

human GIP receptor [3] = molecular target: T1, human GIP receptor; test: cAMP accumulation assay, agonism (ligand alone); type: cell-based; details: Table 1; for Emax: COS-7, intrinsic cAMP activity
[4] = Table 1 and text, read-out: cAMP antagonism nM (IC50, antagonistic potency)
[5] = COS-7 cells, read-out: cAMP agonism nM (EC50)

## CC[C@H](C)[C@H](NC(=O)[C@H](CO)NC(=O)[C@H](Cc1ccc(O)cc1)NC(=O)[C@H](CC(=O)O)NC(=O)[C@H](CCCCNC(=O)CCCCCCCCCCCCCCC(=O)O)NC(=O)[C@@H](NC(=O)[C@H](Cc1ccccc1)NC(=O)[C@@H](N)[C@@H](C)O)[C@@H](C)CC)C(=O)N[C@@H](C)C(=O)N[C@@H](CCSC)C(=O)N[C@@H](CC(=O)O)C(=O)N[C@@H](CCCCN)C(=O)N[C@H](C(=O)N[C@@H](Cc1c[nH]cn1)C(=O)N[C@@H](CCC(N)=O)C(=O)N[C@@H](CCC(N)=O)C(=O)N[C@@H](CC(=O)O)C(=O)N[C@@H](Cc1ccccc1)C(=O)N[C@H](C(=O)N[C@@H](CC(N)=O)C(=O)N[C@@H](Cc1c[nH]c2ccccc12)C(=O)N[C@@H](CC(C)C)C(=O)N[C@@H](CC(C)C)C(=O)N[C@@H](C)C(=O)N[C@@H](CCC(N)=O)C(=O)N[C@@H](CCCCN)C(N)=O)C(C)C)[C@@H](C)CC [AT170, [hGIP(5-30)NH2[S8K]-C16diacid/8]] (H-TFIK(C16 diacid)DYSIAMDKIHQQDFVNWLLAQK-NH2; N-terminus assumed)
Human GIP receptor [1]
  Fold change of IC50 versus GIP(5-30)NH2: 32.4
Human GIP receptor [2]
  Fold change HSA (2%)/Casein (0.1%): 2.2
  Binding (+/−HSA) Fold: 2.2
Human GIP receptor [2]; binding in 0.1% casein (absence of HSA), log value, read-out: logIC50 0.1% casein (converted)
  IC50: 631 nM
Human GIP receptor [2]; presence of 2% HSA
  Ki: 1300 nM
Human GIP receptor [3]; COS-7 cells
  Emax: 0%

## CC[C@H](C)[C@H](NC(=O)[C@H](CO)NC(=O)[C@H](Cc1ccc(O)cc1)NC(=O)[C@H](CC(=O)O)NC(=O)[C@H](CO)NC(=O)[C@@H](NC(=O)[C@H](Cc1ccccc1)NC(=O)[C@@H](N)[C@@H](C)O)[C@@H](C)CC)C(=O)N[C@@H](C)C(=O)N[C@@H](CCSC)C(=O)N[C@@H](CC(=O)O)C(=O)N[C@@H](CCCCN)C(=O)N[C@H](C(=O)N[C@@H](Cc1c[nH]cn1)C(=O)N[C@@H](CCC(N)=O)C(=O)N[C@@H](CCC(N)=O)C(=O)N[C@@H](CCCCNC(=O)CCCCCCCCCCCCCCC(=O)O)C(=O)N[C@@H](Cc1ccccc1)C(=O)N[C@H](C(=O)N[C@@H](CC(N)=O)C(=O)N[C@@H](Cc1c[nH]c2ccccc12)C(=O)N[C@@H](CC(C)C)C(=O)N[C@@H](CC(C)C)C(=O)N[C@@H](C)C(=O)N[C@@H](CCC(N)=O)C(=O)N[C@@H](CCCCN)C(N)=O)C(C)C)[C@@H](C)CC [AT181, [hGIP(5-30)NH2[D21K]-C16diacid/21]] (H-TFISDYSIAMDKIHQQK(C16 diacid)FVNWLLAQK-NH2; N-terminus assumed)
Human GIP receptor [1]
  Ability to antagonize the GIP-mediated cAMP response (in words): highest antagonistic potencies
  Fold change of IC50 versus GIP(5-30)NH2: 0.5
Human GIP receptor [1]; [4]
  IC50: 16 nM
Human GIP receptor [2]
  Fold change HSA (2%)/Casein (0.1%): 5.2
  Binding (+/−HSA) Fold: 3.6
Human GIP receptor [2]; heterologous competition binding, transiently transfected COS-7 cells expressing the human GIP receptor, read-out: Binding
  IC50: 48 nM
Human GIP receptor [2]; presence vs absence of 2% HSA, proxy for albumin binding
  Fold change in affinity, IC50 (plus HSA)/IC50 (minus HSA): 5.2 fold
Human GIP receptor [3]; COS-7 cells
  Emax: 9%
Human GIP receptor [3]; [5]
  EC50: 2 nM

## CC[C@H](C)[C@H](NC(=O)[C@H](CO)NC(=O)[C@H](Cc1ccc(O)cc1)NC(=O)[C@H](CC(=O)O)NC(=O)[C@H](CO)NC(=O)[C@@H](NC(=O)[C@H](Cc1ccccc1)NC(=O)[C@@H](N)[C@@H](C)O)[C@@H](C)CC)C(=O)N[C@@H](C)C(=O)N[C@@H](CCSC)C(=O)N[C@@H](CC(=O)O)C(=O)N[C@@H](CCCNC(=N)N)C(=O)N[C@H](C(=O)N[C@@H](CCCCNC(=O)CCCCCCCCCCCCCCC(=O)O)C(=O)N[C@@H](CCC(N)=O)C(=O)N[C@@H](CCC(N)=O)C(=O)N[C@@H](CC(=O)O)C(=O)N[C@@H](Cc1ccccc1)C(=O)N[C@H](C(=O)N[C@@H](CC(N)=O)C(=O)N[C@@H](Cc1c[nH]c2ccccc12)C(=O)N[C@@H](CC(C)C)C(=O)N[C@@H](CC(C)C)C(=O)N[C@@H](C)C(=O)N[C@@H](CCC(N)=O)C(=O)N[C@@H](CCCNC(=N)N)C(N)=O)C(C)C)[C@@H](C)CC [AT157, [hGIP(5-30)NH2[K16R; H18K; K30R]-C16diacid/18]] (H-TFISDYSIAMDRIK(C16 diacid)QQDFVNWLLAQR-NH2; N-terminus assumed)
Human GIP receptor [1]; given as log IC50 (negative sign), Table 1, read-out: cAMP antagonism log (converted)
  IC50: 7.94 nM
Human GIP receptor [1]; [4]
  IC50: 7 nM
Human GIP receptor [3]; COS-7 cells
  Emax: 12%
Human GIP receptor [3]; given as log EC50 (negative sign), read-out: cAMP agonism EC50 (log) (converted)
  EC50: 10 nM

## CCCCCCCCCCCC(=O)NCCCC[C@H](NC(=O)[C@H](CCC(N)=O)NC(=O)[C@H](C)NC(=O)[C@H](CC(C)C)NC(=O)[C@H](CC(C)C)NC(=O)[C@H](Cc1c[nH]c2ccccc12)NC(=O)[C@H](CC(N)=O)NC(=O)[C@@H](NC(=O)[C@H](Cc1ccccc1)NC(=O)[C@H](CC(=O)O)NC(=O)[C@H](CCC(N)=O)NC(=O)[C@H](CCC(N)=O)NC(=O)[C@H](Cc1c[nH]cn1)NC(=O)[C@@H](NC(=O)[C@H](CCCCN)NC(=O)[C@H](CC(=O)O)NC(=O)[C@H](CCSC)NC(=O)[C@H](C)NC(=O)[C@@H](NC(=O)[C@H](CO)NC(=O)[C@H](Cc1ccc(O)cc1)NC(=O)[C@H](CC(=O)O)NC(=O)[C@H](CO)NC(=O)[C@@H](NC(=O)[C@H](Cc1ccccc1)NC(=O)[C@@H](NC(=O)CNC(=O)[C@@H](N)CCC(=O)O)[C@@H](C)O)[C@@H](C)CC)[C@@H](C)CC)[C@@H](C)CC)C(C)C)C(N)=O [AT103, [hGIP(3-30)NH2—C12/30]]
Human GIP receptor [1]; [4]
  IC50: 121 nM
Human GIP receptor [3]; COS-7 cells
  Emax: 7%

## CC[C@H](C)[C@H](NC(=O)[C@H](CO)NC(=O)[C@H](Cc1ccc(O)cc1)NC(=O)[C@H](CC(=O)O)NC(=O)[C@H](CO)NC(=O)[C@@H](NC(=O)[C@H](Cc1ccccc1)NC(=O)[C@@H](NC(=O)CNC(=O)[C@@H](N)CCC(=O)O)[C@@H](C)O)[C@@H](C)CC)C(=O)N[C@@H](C)C(=O)N[C@@H](CCSC)C(=O)N[C@@H](CC(=O)O)C(=O)N[C@@H](CCCCN)C(=O)N[C@@H](CCCCNC(=O)CCCCCCCCCCCCCCC(=O)O)C(=O)N[C@@H](Cc1c[nH]cn1)C(=O)N[C@@H](CCC(N)=O)C(=O)N[C@@H](CCC(N)=O)C(=O)N[C@@H](CC(=O)O)C(=O)N[C@@H](Cc1ccccc1)C(=O)N[C@H](C(=O)N[C@@H](CC(N)=O)C(=O)N[C@@H](Cc1c[nH]c2ccccc12)C(=O)N[C@@H](CC(C)C)C(=O)N[C@@H](CC(C)C)C(=O)N[C@@H](C)C(=O)N[C@@H](CCC(N)=O)C(=O)N[C@@H](CCCCN)C(N)=O)C(C)C [AT307, [hGIP(3-30)NH2[I17K]-C16diacid/17]] (H-EGTFISDYSIAMDKK(C16 diacid)HQQDFVNWLLAQK-NH2; N-terminus assumed)
Human GIP receptor [1]; [4]
  IC50: 93 nM
Human GIP receptor [3]; COS-7 cells
  Emax: 4.9%
Human GIP receptor [3]; [5]
  EC50: 14 nM

## CC[C@H](C)[C@H](NC(=O)[C@H](CO)NC(=O)[C@H](Cc1ccc(O)cc1)NC(=O)[C@H](CC(=O)O)NC(=O)[C@H](CO)NC(=O)[C@@H](NC(=O)[C@H](Cc1ccccc1)NC(=O)[C@@H](NC(=O)CNC(=O)[C@@H](N)CCC(=O)O)[C@@H](C)O)[C@@H](C)CC)C(=O)N[C@@H](C)C(=O)N[C@@H](CCSC)C(=O)N[C@@H](CC(=O)O)C(=O)N[C@@H](CCCCNC(=O)CCCCCCCCCCCCCCC(=O)O)C(=O)N[C@H](C(=O)N[C@@H](Cc1c[nH]cn1)C(=O)N[C@@H](CCC(N)=O)C(=O)N[C@@H](CCC(N)=O)C(=O)N[C@@H](CC(=O)O)C(=O)N[C@@H](Cc1ccccc1)C(=O)N[C@H](C(=O)N[C@@H](CC(N)=O)C(=O)N[C@@H](Cc1c[nH]c2ccccc12)C(=O)N[C@@H](CC(C)C)C(=O)N[C@@H](CC(C)C)C(=O)N[C@@H](C)C(=O)N[C@@H](CCC(N)=O)C(=O)N[C@@H](CCCCN)C(N)=O)C(C)C)[C@@H](C)CC [AT370, [hGIP(3-30)NH2—C16diacid/16]]
Human GIP receptor [1]; [4]
  IC50: 25 nM
Human GIP receptor [3]; intrinsic cAMP activity, COS-7 cells
  cAMP agonism Emax: no ag.

## CC[C@H](C)[C@H](NC(=O)[C@H](CO)NC(=O)[C@H](Cc1ccc(O)cc1)NC(=O)[C@H](CC(=O)O)NC(=O)[C@H](CO)NC(=O)[C@@H](NC(=O)[C@H](Cc1ccccc1)NC(=O)[C@@H](NC(=O)CNC(=O)[C@@H](N)CCC(=O)O)[C@@H](C)O)[C@@H](C)CC)C(=O)N[C@@H](C)C(=O)N[C@@H](CCSC)C(=O)N[C@@H](CC(=O)O)C(=O)N[C@@H](CCCCN)C(=O)N[C@H](C(=O)N[C@@H](Cc1c[nH]cn1)C(=O)N[C@@H](CCC(N)=O)C(=O)N[C@@H](CCC(N)=O)C(=O)N[C@@H](CCCCNC(=O)CCCCCCCCCCCCCCC(=O)O)C(=O)N[C@@H](Cc1ccccc1)C(=O)N[C@H](C(=O)N[C@@H](CC(N)=O)C(=O)N[C@@H](Cc1c[nH]c2ccccc12)C(=O)N[C@@H](CC(C)C)C(=O)N[C@@H](CC(C)C)C(=O)N[C@@H](C)C(=O)N[C@@H](CCC(N)=O)C(=O)N[C@@H](CCCCN)C(N)=O)C(C)C)[C@@H](C)CC [AT310, [hGIP(3-30)NH2[D21K]-C16diacid/21]] (H-EGTFISDYSIAMDKIHQQK(C16 diacid)FVNWLLAQK-NH2; N-terminus assumed)
Human GIP receptor [1]; [4]
  IC50: 49 nM
Human GIP receptor [3]; COS-7 cells
  Emax: 6.2%
